This test addresses T1, hP2X7 (Homo sapiens, UniProt Q99572).
T1 construct: expressed in transfected cells; host or cells: 1321N1 astrocytoma cells
T1 sequence (Q99572 1-595): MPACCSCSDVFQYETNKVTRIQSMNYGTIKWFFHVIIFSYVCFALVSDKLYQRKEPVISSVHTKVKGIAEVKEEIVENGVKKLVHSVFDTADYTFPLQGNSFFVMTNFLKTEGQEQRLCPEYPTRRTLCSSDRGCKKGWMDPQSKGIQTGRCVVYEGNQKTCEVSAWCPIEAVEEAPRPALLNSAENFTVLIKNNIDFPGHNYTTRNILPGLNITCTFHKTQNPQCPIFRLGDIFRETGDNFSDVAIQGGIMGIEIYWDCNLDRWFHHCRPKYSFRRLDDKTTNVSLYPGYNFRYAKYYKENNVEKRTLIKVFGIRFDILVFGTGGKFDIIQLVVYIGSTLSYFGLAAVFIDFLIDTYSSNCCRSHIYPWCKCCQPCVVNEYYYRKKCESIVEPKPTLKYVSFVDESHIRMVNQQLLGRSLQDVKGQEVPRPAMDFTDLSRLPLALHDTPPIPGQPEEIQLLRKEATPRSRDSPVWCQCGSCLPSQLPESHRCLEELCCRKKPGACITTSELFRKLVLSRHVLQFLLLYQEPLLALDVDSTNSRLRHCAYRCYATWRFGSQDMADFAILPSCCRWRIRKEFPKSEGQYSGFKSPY
Briefly: P2X7 antagonism: ligand-induced Ca2+ flux in 1321N1 astrocytoma cells overexpressing hP2X7. The test is classed as cell-based. The settings on record: pIC50 = -log(IC50), read-out: hP2RX7pIC50 (mean pIC50 values) (converted). In a few lines:
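Intracellular Ca2+ tracked with a quenched Ca2+-sensitive fluorescent dye kit (excitation 488 nm, emission 510-560 nm) in 1321N1 cells, before and after agonist addition in presence of antagonist. Effects expressed as % control and IC50.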
(In general: Calcium assays in cells follow changes in intracellular calcium, usually with a dye or a luminescent sensor.)

Consider `CCc1ncc(C(CNC(=O)c2cccc3nc(N4CCOCC4)ccc23)N2CCOCC2)cn1` (centres unmarked) [Compound 311], for which the IC50 was 112 nM.

Take `CC(C)Oc1ncc(C(CNC(=O)c2cccc3nc(NC4CC4)ccc23)N2CCOCC2)cn1` (centres unmarked) [Compound 242]: the IC50 is 115 nM.

In the case of `CCOc1ncc(C(CNC(=O)c2cccc3nc(N4CCN(C(C)C)CC4)ccc23)N2CCC(F)(F)CC2)cn1` (centres unmarked) [Compound 298], the IC50 was 45.7 nM.

As to `CCc1ncc(C(CNC(=O)c2cccc3nc(N4CCCC4)ccc23)N2CCC(F)(F)CC2)cn1` (centres unmarked) [Compound 282], the IC50 is 75.9 nM.

`CCOc1ccc2c(C(=O)NCC(c3cnc(C(F)(F)F)nc3)N3CCOCC3)cccc2n1` (centres unmarked) [Compound 166]: the IC50 is 49 nM.

On to `Cc1ncc(C(CNC(=O)c2cccc3nc(NCCCO)ccc23)N2CCC(F)(F)CC2)cn1` (centres unmarked) [Compound 132], for which the IC50 is 63.1 nM.

Regarding `O=C(NCC(c1cnc(C(F)(F)F)nc1)N1CCCCCC1)c1cccc2nc(N3CCNCC3)ccc12` (centres unmarked) [Compound 109], the IC50 is 22.4 nM.

For `O=C(NCC(c1cnc(C(F)(F)F)nc1)N1CCOCC1)c1cccc2nc(N3CCN(C4CC4)CC3)ccc12` (centres unmarked) [Compound 173], the IC50 is 70.8 nM.

As to `CC(C)N1CCN(c2ccc3c(C(=O)NCC(c4cnc(N5CCNCC5)nc4)N4CCC(F)(F)CC4)cccc3n2)CC1` (centres unmarked) [Compound 312], the IC50 is 105 nM.

With `CN(C)c1ncc(C(CNC(=O)c2cccc3nc(NC4CC4)ccc23)N2CCOCC2)cn1` (centres unmarked) [Compound 233], the IC50 was 148 nM.

As for `CCN(CC)c1ccc2c(C(=O)NCC(c3cnc(C(F)(F)F)nc3)N3CCOCC3)cccc2n1` (centres unmarked) [Compound 279], the IC50 is 77.6 nM.

As to `O=C(NCC(c1cnc(C(F)(F)F)nc1)N1CCCOCC1)c1cccc2nc(NC3CC3)ccc12` (centres unmarked) [Compound 95], the IC50 is 44.7 nM.

On to `CCc1ncc(C(CNC(=O)c2cccc3nc(N4CCN(C(C)C)CC4)ccc23)N2CCOCC2)cn1` (centres unmarked) [Compound 295], for which the IC50 was 209 nM.

Take `CC1CN(c2ccc3c(C(=O)NCC(c4cnc(C(F)(F)F)nc4)N4CCOCC4)cccc3n2)CCN1` (centres unmarked) [Compound 271]: the IC50 was 107 nM.

For `CCc1ncc(C(CNC(=O)c2cccc3nc(N4CCOCC4)ccc23)N2CCC(F)(F)CC2)cn1` (centres unmarked) [Compound 220], the IC50 is 83.2 nM.

`Cc1ncc(C(CNC(=O)c2cccc3nc(N4CCOCC4)ccc23)N2CCOCC2)cn1` (centres unmarked) [Compound 122]: the IC50 is 115 nM.

Regarding `CC(C)N1CCN(c2ccc3c(C(=O)NCC(c4cnc(C5CCCC5)nc4)N4CCC(F)(F)CC4)cccc3n2)CC1` (centres unmarked) [Compound 213], the IC50 was 100 nM.

`O=C(NCC(c1cnc(C(F)(F)F)nc1)N1CCCC(F)C1)c1cccc2ncccc12` (centres unmarked) [Compound 71]: the IC50 was 30.9 nM.

Regarding `CC(C)N1CCN(c2ccc3c(C(=O)NCC(c4cnc(N5CCCC5)nc4)N4CCOCC4)cccc3n2)CC1` (centres unmarked) [Compound 285], the IC50 was 158 nM.

Consider `CC(C)OCCCNc1ccc2c(C(=O)NCC(c3cnc(C(F)(F)F)nc3)N3CCOCC3)cccc2n1` (centres unmarked) [Compound 182], for which the IC50 was 112 nM.

Consider `NC1CCN(c2ccc3c(C(=O)NCC(c4cnc(C(F)(F)F)nc4)N4CCOCC4)cccc3n2)CC1` (centres unmarked) [Compound 167], for which the IC50 is 117 nM.

As to `CC(C)Oc1ncc(C(CNC(=O)c2cccc3nc(N4CCCC4)ccc23)N2CCOCC2)cn1` (centres unmarked) [Compound 284], the IC50 is 67.6 nM.

With `O=C(NCC(c1cnc(N2CCCC2)nc1)N1CCC(F)(F)CC1)c1cccc2nc(NCC3CC3)ccc12` (centres unmarked) [Compound 262], the IC50 is 56.2 nM.

`CCc1ncc(C(CNC(=O)c2cccc3nc(N4CCCC4)ccc23)N2CCOCC2)cn1` (centres unmarked) [Compound 290]: the IC50 is 135 nM.

As for `O=C(NCC(c1cnc(OC2CCC2)nc1)N1CCOCC1)c1cccc2nc(N3CCOCC3)ccc12` (centres unmarked) [Compound 313], the IC50 was 117 nM.

`COc1ncc(C(CNC(=O)c2cccc3nc(NCC4CC4)ccc23)N2CCC(F)(F)CC2)cn1` (centres unmarked) [Compound 260]: the IC50 is 27.5 nM.

With `COCCCNc1ccc2c(C(=O)NCC(c3cnc(C(F)(F)F)nc3)N3CCOCC3)cccc2n1` (centres unmarked) [Compound 185], the IC50 was 129 nM.

For `O=C(NCC(c1cnc(-c2ccccc2)nc1)N1CCOCC1)c1cccc2nc(N3CCOCC3)ccc12` (centres unmarked) [Compound 315], the IC50 is 42.7 nM.

For `O=C(NCC(c1cnc(C(F)(F)F)nc1)N1CCC(F)(F)CC1)c1cccc2nc(NCCCO)ccc12` (centres unmarked) [Compound 40], the IC50 was 34.7 nM.

In the case of `CC(C)Nc1ccc2c(C(=O)NCC(c3cnc(C(F)(F)F)nc3)N3CCOCC3)cccc2n1` (centres unmarked) [Compound 168], the IC50 was 75.9 nM.

Take `CC(C)Oc1ncc(C(CNC(=O)c2cccc3nc(N4CCCC4)ccc23)N2CCC(F)(F)CC2)cn1` (centres unmarked) [Compound 305]: the IC50 is 100 nM.

As for `CC(C)c1ncc(C(CNC(=O)c2cccc3nc(NCC4CC4)ccc23)N2CCC(F)(F)CC2)cn1` (centres unmarked) [Compound 258], the IC50 was 44.7 nM.

For the molecule `O=C(NCC(c1cncnc1)N1CCC(F)(F)CC1)c1cccc2nc(NC3CC3)ccc12` (centres unmarked) [Compound 256], the IC50 is 44.7 nM.

On to `CCCc1cc(C(=O)NCC(c2ccc(C(F)(F)F)nc2)N2CCC(F)(F)CC2)c2ccccc2n1` (centres unmarked) [Compound 18], for which the IC50 is 55 nM.

For the molecule `O=C(NCC(c1cnc(N2CCOCC2)nc1)N1CCC(F)(F)CC1)c1cccc2nc(NC3CC3)ccc12` (centres unmarked) [Compound 205], the IC50 is 64.6 nM.

As to `CCOc1ncc(C(CNC(=O)c2cccc3nc(NC4CC4)ccc23)N2CCOCC2)cn1` (centres unmarked) [Compound 229], the IC50 is 69.2 nM.

As for `O=C(NCC(c1ccc(C(F)(F)F)nc1)N1CCC(F)(F)CC1)c1ccc2ccccc2n1` (centres unmarked) [Compound 14], the IC50 was 178 nM.

Take `O=C(NCC(c1cnc(C(F)(F)F)nc1)N1CCC(F)(F)CC1)c1cccc2ncccc12` (single isomer, unassigned) [Compound 47]: the IC50 was 38 nM.

For `O=C(NCC(c1cnc(C(F)(F)F)nc1)N1CCCC(F)(F)C1)c1cccc2ncccc12` (centres unmarked) [Compound 66], the IC50 is 18.2 nM.

For `O=C(NCC(c1cnc(C(F)(F)F)nc1)N1CCOCC1)c1cccc2nc(N3CCCCC3)ccc12` (centres unmarked) [Compound 163], the IC50 is 37.2 nM.

Regarding `O=C(NCC(c1cnc(C(F)(F)F)nc1)N1CCC(F)CC1)c1cccc2nc(N3CC(O)C3)ccc12` (centres unmarked) [Compound 155], the IC50 was 64.6 nM.

On to `CCc1ncc(C(CNC(=O)c2cccc3nc(NC4CC4)ccc23)N2CCC(F)(F)CC2)cn1` (centres unmarked) [Compound 221], for which the IC50 is 67.6 nM.

Regarding `Nc1ncc(C(CNC(=O)c2cccc3nc(NC4CC4)ccc23)N2CCC(F)(F)CC2)cn1` (centres unmarked) [Compound 194], the IC50 is 178 nM.

`COc1ccc2c(C(=O)NCC(c3cnc(C(F)(F)F)nc3)N3CCC(F)(F)CC3)cccc2n1` (centres unmarked) [Compound 41]: the IC50 is 45.7 nM.

As for `O=C(NC[C@H](c1cnc(C(F)(F)F)nc1)N1CCC(F)(F)CC1)c1cccc2nc(N3CCNCC3)ccc12` [Compound 171], the IC50 was 26.9 nM.

In the case of `CC(C)N1CCN(c2ccc3c(C(=O)NCC(c4cnc(N(C)C)nc4)N4CCOCC4)cccc3n2)CC1` (centres unmarked) [Compound 199], the IC50 is 407 nM.

Take `O=C(NCC(c1cnc(NC2CC2)nc1)N1CCC(F)(F)CC1)c1cccc2nc(NCC3CC3)ccc12` (centres unmarked) [Compound 263]: the IC50 was 37.2 nM.

Regarding `O=C(NCC(c1cnc(-c2ccccc2)nc1)N1CCC(F)(F)CC1)c1cccc2nc(N3CCCC3)ccc12` (centres unmarked) [Compound 283], the IC50 was 115 nM.

For the molecule `O=C(NCC(c1ccc(C(F)(F)F)nc1)N1CCC(F)(F)CC1)c1cccc2ncccc12` (single isomer, unassigned) [Compound 11], the IC50 is 52.5 nM.

Consider `COCCN1CCN(c2ccc3c(C(=O)NCC(c4cnc(C(F)(F)F)nc4)N4CCOCC4)cccc3n2)CC1` (centres unmarked) [Compound 281], for which the IC50 is 75.9 nM.

On to `CC(C)N1CCN(c2ccc3c(C(=O)NCC(c4cnc(OC5CCC5)nc4)N4CCC(F)(F)CC4)cccc3n2)CC1` (centres unmarked) [Compound 300], for which the IC50 is 37.2 nM.

As for `COC1CCN(c2ccc3c(C(=O)NCC(c4cnc(C(F)(F)F)nc4)N4CCOCC4)cccc3n2)CC1` (centres unmarked) [Compound 161], the IC50 is 46.8 nM.

Regarding `CC(C)N(C)c1ccc2c(C(=O)NCC(c3cnc(C(F)(F)F)nc3)N3CCOCC3)cccc2n1` (centres unmarked) [Compound 272], the IC50 is 60.3 nM.

Regarding `CC(C)(C)OC(=O)N1CCN(c2ccc3c(C(=O)NCC(c4cnc(C(F)(F)F)nc4)N4CCCCCC4)cccc3n2)CC1` (centres unmarked) [Compound 107], the IC50 is 389 nM.

Regarding `CCCNc1ccc2c(C(=O)NCC(c3cnc(C(F)(F)F)nc3)N3CCOCC3)cccc2n1` (centres unmarked) [Compound 184], the IC50 is 61.7 nM.

Turning to `O=C(NCC(c1cnc(OC2CCC2)nc1)N1CCC(F)(F)CC1)c1cccc2nc(NC3CC3)ccc12` (centres unmarked) [Compound 214], the IC50 is 33.9 nM.

As for `O=C(NCC(c1cnc(N2CCNCC2)nc1)N1CCC(F)(F)CC1)c1cccc2nc(NCC3CC3)ccc12` (centres unmarked) [Compound 223], the IC50 is 195 nM.

For `CCOc1ncc(C(CNC(=O)c2cccc3nc(N4CCOCC4)ccc23)N2CCC(F)(F)CC2)cn1` (centres unmarked) [Compound 253], the IC50 is 36.3 nM.

In the case of `O=C(NCC(c1ccccn1)N1CCC(F)(F)CC1)c1cccc2ncccc12` (centres unmarked) [Compound 25], the IC50 was above 10000 nM.

Values taken from patent US8431704B2, “Quinoline or isoquinoline substituted P2X7 antagonists” (Janssen Pharmaceutica NV, priority 2008, dated 2013).
